Results on 10 compounds are retold here after article PMC4829233, “Identification of Novel Chemical Scaffolds Inhibiting Trypanothione Synthetase from Pathogenic Trypanosomatids” (PLoS Neglected Tropical Diseases, 2016).

Chain of LiTryS (Leishmania infantum trypanothione synthetase) (A4I2Z3 1-652): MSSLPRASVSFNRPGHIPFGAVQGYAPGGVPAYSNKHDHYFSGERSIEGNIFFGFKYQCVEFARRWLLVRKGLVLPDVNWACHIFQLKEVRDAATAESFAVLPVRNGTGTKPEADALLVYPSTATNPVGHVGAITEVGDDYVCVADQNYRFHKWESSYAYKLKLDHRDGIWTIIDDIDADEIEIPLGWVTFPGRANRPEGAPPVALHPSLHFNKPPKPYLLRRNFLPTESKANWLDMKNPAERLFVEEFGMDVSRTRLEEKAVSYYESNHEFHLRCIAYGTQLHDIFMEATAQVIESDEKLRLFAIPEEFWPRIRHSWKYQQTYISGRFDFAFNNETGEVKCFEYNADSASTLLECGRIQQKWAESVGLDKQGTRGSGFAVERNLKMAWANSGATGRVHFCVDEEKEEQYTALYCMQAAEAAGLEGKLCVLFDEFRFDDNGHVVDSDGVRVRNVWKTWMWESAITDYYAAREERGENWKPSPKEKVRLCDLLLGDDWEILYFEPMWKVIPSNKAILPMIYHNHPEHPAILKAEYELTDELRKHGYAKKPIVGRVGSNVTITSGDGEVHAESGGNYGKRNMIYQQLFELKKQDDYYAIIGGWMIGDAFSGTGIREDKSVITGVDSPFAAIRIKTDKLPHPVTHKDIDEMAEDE

The first test concerns the target LiTryS (Leishmania infantum trypanothione synthetase) (Leishmania infantum, UniProt A4I2Z3). In words: biochemical. The test is classed as biochemical.
Details: not given
As to `COc1ccc(C2C(C(=O)c3ccc(OC)c(OC)c3)=C(O)C(=O)N2c2nc3ccc(OC)cc3s2)cc1` (centres unmarked) [ADPKN 162], the “LiTryS Activity ± 2σn-1 (%)” value is 79.8 ± 3.4; 4%.

As to `[O-][n+]1onc2cc(F)c(F)cc21` [Compound J40], the “LiTryS Activity ± 2σn-1 (%)” value was 92.9 ± 5.1; 4%.

Take `COc1cc(CNCCCCCCCCNCc2ccc(OCc3ccccc3)c(OC)c2)ccc1OCc1ccccc1` [APC1-111, N^1,N^8-bis(4-(benzyloxy)-3-methoxybenzyl)octane-1,8-diamine]: the “LiTryS Activity ± 2σn-1 (%)” value is recorded as “halved”.

Turning to `Clc1ccc(CNCCCCCCCCNCc2ccc(Cl)cc2)cc1` [EAP1-43], the “LiTryS Activity ± 2σn-1 (%)” value is 78.0 ± 5.9; 4%.

Still in this test, the particulars now being: read-out: % LiTryS inhibition ± 2σn-1.
On to `COc1cc(CNCCCCNCc2ccc(OCc3ccccc3)c(OC)c2)ccc1OCc1ccccc1` [APC1-89], for which the inhibition (as a rule, the share of the control response that was lost under treatment) at 30 µM turned out to be 23.4%.

For the compound `CC(C)(C)NC(=O)Nc1nc2nc(N)ncc2cc1-c1ccc2ccccc2c1` [ZEA10], the inhibition at 30 µM was found to be 32.1 ± 6.4%.

As for `Brc1ccc(CNCCCCCCCCCCCCNCc2ccc(Br)cc2)cc1` [EAP1-63], the inhibition at 30 µM is 25.9 ± 9.3%.

As for `COc1cc(CNCCCCCCNCc2ccc(OCc3ccccc3)c(OC)c2)ccc1OCc1ccccc1` [APC1-101], the inhibition at 30 µM was 26.3%.

Consider `COc1cc(CNCCCCCCCCNCc2ccc(OCc3ccccc3)c(OC)c2)ccc1OCc1ccccc1` [APC1-111, N^1,N^8-bis(4-(benzyloxy)-3-methoxybenzyl)octane-1,8-diamine], for which the inhibition at 30 µM came to 49.6%.

The test is the same for the next values; noted with them: read-out: LiTryS Activity ± 2σn-1 (%).
With `COc1cc(CNCCCCNCc2ccc(OCc3ccccc3)c(OC)c2)ccc1OCc1ccccc1` [APC1-89], the activity at 30 µM turned out to be 76.6%.

Turning to `CC(C)(C)NC(=O)Nc1nc2nc(N)ncc2cc1-c1ccc2ccccc2c1` [ZEA10], the activity at 30 µM is 67.9%.

Turning to `Brc1ccc(CNCCCCCCCCCCCCNCc2ccc(Br)cc2)cc1` [EAP1-63], the activity at 30 µM came to 74.1%.

Turning to `COc1ccc(CNCCCNCc2ccc(OC)cc2)cc1` [APC1-67], the activity at 30 µM was 102%.

For the compound `COc1cc(CNCCCCCCNCc2ccc(OCc3ccccc3)c(OC)c2)ccc1OCc1ccccc1` [APC1-101], the activity at 30 µM was 73.7%.

Still in this test, the particulars now being: read-out: LiTryS IC50 (estimated).
As for `COc1cc(CNCCCCCCCCNCc2ccc(OCc3ccccc3)c(OC)c2)ccc1OCc1ccccc1` [APC1-111, N^1,N^8-bis(4-(benzyloxy)-3-methoxybenzyl)octane-1,8-diamine], the IC50 – broadly, the concentration needed to halve the response being measured – is roughly 30 µM.

The next test has as its system bloodstream Trypanosoma brucei brucei. In words: Proliferation/cytotoxicity assay, infective T. b. brucei. Format: cell-based. To be noted: 24 h, read-out: T. b. Brucei EC50.
Regarding `COc1cc(CNCCCCNCc2ccc(OCc3ccccc3)c(OC)c2)ccc1OCc1ccccc1` [APC1-89], the EC50 (in general, the concentration giving half of the maximal effect) worked out at 61 ± 1 nM.

Consider `CC(C)(C)NC(=O)Nc1nc2nc(N)ncc2cc1-c1ccc2ccccc2c1` [ZEA10], for which the EC50 worked out at 280 ± 80 nM.

For the compound `Brc1ccc(CNCCCCCCCCCCCCNCc2ccc(Br)cc2)cc1` [EAP1-63], the EC50 was determined as 90 ± 7 nM.

For `COc1cc(CNCCCCCCNCc2ccc(OCc3ccccc3)c(OC)c2)ccc1OCc1ccccc1` [APC1-101], the EC50 was 280 ± 90 nM.

Turning to `COc1cc(CNCCCCCCCCNCc2ccc(OCc3ccccc3)c(OC)c2)ccc1OCc1ccccc1` [APC1-111, N^1,N^8-bis(4-(benzyloxy)-3-methoxybenzyl)octane-1,8-diamine], the EC50 is 40 ± 1 nM.

The same test, now with this note: bloodstream T. b. brucei, 24 h, read-out: T. b. Brucei EC50.
Consider `CC1CS(=O)(=O)CCN1/N=C/c1ccc([N+](=O)[O-])o1` (centres unmarked) [nifurtimox, reference compound], for which the EC50 came out at 5000 nM.

In the next test the target is TcTryS (Trypanosoma cruzi trypanothione synthetase) (Trypanosoma cruzi, UniProt Q9GT49). Description: biochemical.
Chain of TcTryS (Trypanosoma cruzi trypanothione synthetase) (Q9GT49 whole entry): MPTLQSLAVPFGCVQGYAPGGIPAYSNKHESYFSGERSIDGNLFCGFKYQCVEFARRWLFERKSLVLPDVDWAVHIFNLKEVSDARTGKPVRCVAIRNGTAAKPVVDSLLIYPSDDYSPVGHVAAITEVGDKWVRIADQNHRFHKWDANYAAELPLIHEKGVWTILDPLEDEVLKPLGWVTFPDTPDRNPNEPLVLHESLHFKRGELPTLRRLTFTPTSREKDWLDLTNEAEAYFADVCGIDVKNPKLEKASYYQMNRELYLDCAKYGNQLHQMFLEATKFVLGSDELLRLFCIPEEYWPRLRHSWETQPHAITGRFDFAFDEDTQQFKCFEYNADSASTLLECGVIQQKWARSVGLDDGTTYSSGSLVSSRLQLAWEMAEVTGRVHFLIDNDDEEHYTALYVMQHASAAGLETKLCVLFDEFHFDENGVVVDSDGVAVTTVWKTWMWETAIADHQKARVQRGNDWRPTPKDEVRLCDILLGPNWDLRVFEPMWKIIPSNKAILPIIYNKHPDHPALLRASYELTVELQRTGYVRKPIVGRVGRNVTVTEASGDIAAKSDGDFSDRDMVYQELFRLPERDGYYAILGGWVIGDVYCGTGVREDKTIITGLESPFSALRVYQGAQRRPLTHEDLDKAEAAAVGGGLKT
Details: not given
Format: biochemical.
`COc1ccc(C2C(C(=O)c3ccc(OC)c(OC)c3)=C(O)C(=O)N2c2nc3ccc(OC)cc3s2)cc1` (centres unmarked) [ADPKN 162]: the “TcTryS Activity ± 2σn-1 (%)” value is listed as 98.1 ± 4.7; 4%.

Regarding `[O-][n+]1onc2cc(F)c(F)cc21` [Compound J40], the “TcTryS Activity ± 2σn-1 (%)” value was 87.4 ± 1.6; 3%.

As to `Clc1ccc(CNCCCCCCCCNCc2ccc(Cl)cc2)cc1` [EAP1-43], the “TcTryS Activity ± 2σn-1 (%)” value was 87.9 ± 4.7; 4%.

The test is the same for the next values; noted with them: read-out: % TcTryS inhibition ± 2σn-1.
Regarding `COc1cc(CNCCCCNCc2ccc(OCc3ccccc3)c(OC)c2)ccc1OCc1ccccc1` [APC1-89], the inhibition at 30 µM turned out to be 25.6 ± 1.4%.

Turning to `CC(C)(C)NC(=O)Nc1nc2nc(N)ncc2cc1-c1ccc2ccccc2c1` [ZEA10], the inhibition at 30 µM turned out to be 32.3 ± 4%.

Take `Brc1ccc(CNCCCCCCCCCCCCNCc2ccc(Br)cc2)cc1` [EAP1-63]: the inhibition at 30 µM was 30.8 ± 3.8%.

With `COc1cc(CNCCCCCCNCc2ccc(OCc3ccccc3)c(OC)c2)ccc1OCc1ccccc1` [APC1-101], the inhibition at 30 µM came to 17%.

As for `COc1cc(CNCCCCCCCCNCc2ccc(OCc3ccccc3)c(OC)c2)ccc1OCc1ccccc1` [APC1-111, N^1,N^8-bis(4-(benzyloxy)-3-methoxybenzyl)octane-1,8-diamine], the inhibition at 30 µM was determined as 28.9%.

Staying with this test, now noted: read-out: TcTryS Activity ± 2σn-1 (%).
For the compound `COc1cc(CNCCCCNCc2ccc(OCc3ccccc3)c(OC)c2)ccc1OCc1ccccc1` [APC1-89], the remaining activity at 30 µM was 74.4%.

As to `CC(C)(C)NC(=O)Nc1nc2nc(N)ncc2cc1-c1ccc2ccccc2c1` [ZEA10], the remaining activity at 30 µM stood at 67.7%.

`Brc1ccc(CNCCCCCCCCCCCCNCc2ccc(Br)cc2)cc1` [EAP1-63]: the remaining activity at 30 µM was 69.2%.

For the compound `COc1ccc(CNCCCNCc2ccc(OC)cc2)cc1` [APC1-67], the remaining activity at 30 µM was determined as 92.4%.

Regarding `COc1cc(CNCCCCCCNCc2ccc(OCc3ccccc3)c(OC)c2)ccc1OCc1ccccc1` [APC1-101], the remaining activity at 30 µM is 83%.

Consider `COc1cc(CNCCCCCCCCNCc2ccc(OCc3ccccc3)c(OC)c2)ccc1OCc1ccccc1` [APC1-111, N^1,N^8-bis(4-(benzyloxy)-3-methoxybenzyl)octane-1,8-diamine], for which the remaining activity at 30 µM is 71.1%.

The target of another test is TbTryS (Trypanosoma brucei trypanothione synthetase) (Trypanosoma brucei brucei, UniProt Q8IEX1). Description: biochemical.
Chain of TbTryS (Trypanosoma brucei trypanothione synthetase) (Q8IEX1 1-627): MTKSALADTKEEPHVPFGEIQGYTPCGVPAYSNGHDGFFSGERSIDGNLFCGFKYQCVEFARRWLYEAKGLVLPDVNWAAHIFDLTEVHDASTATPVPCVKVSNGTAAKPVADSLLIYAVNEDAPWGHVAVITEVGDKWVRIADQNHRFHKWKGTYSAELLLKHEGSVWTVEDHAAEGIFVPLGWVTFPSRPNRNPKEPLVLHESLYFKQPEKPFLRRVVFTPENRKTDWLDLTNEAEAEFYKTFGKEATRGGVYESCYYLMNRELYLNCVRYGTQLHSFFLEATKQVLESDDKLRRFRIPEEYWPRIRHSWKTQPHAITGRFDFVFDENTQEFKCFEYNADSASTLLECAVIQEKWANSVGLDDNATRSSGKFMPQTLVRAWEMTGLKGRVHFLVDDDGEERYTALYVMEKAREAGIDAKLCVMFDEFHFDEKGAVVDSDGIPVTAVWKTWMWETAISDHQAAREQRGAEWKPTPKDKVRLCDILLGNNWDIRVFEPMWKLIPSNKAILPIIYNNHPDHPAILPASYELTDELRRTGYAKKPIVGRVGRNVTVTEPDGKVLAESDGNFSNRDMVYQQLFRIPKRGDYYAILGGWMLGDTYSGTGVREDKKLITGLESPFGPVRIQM
Details: not given
`COc1cc(CNCCCCNCc2ccc(OCc3ccccc3)c(OC)c2)ccc1OCc1ccccc1` [APC1-89] gave an IC50 of roughly 30 µM.

`CC(C)(C)NC(=O)Nc1nc2nc(N)ncc2cc1-c1ccc2ccccc2c1` [ZEA10] showed an IC50 of roughly 30 µM.

On to `Brc1ccc(CNCCCCCCCCCCCCNCc2ccc(Br)cc2)cc1` [EAP1-63], for which the IC50 was roughly 30 µM.

In the case of `COc1ccc(C2C(C(=O)c3ccc(OC)c(OC)c3)=C(O)C(=O)N2c2nc3ccc(OC)cc3s2)cc1` (centres unmarked) [ADPKN 162], the “TbTryS Activity ± 2σn-1 (%)” value is reported as 82.0 ± 1.6; 3%.

Regarding `COc1cc(CNCCCCCCNCc2ccc(OCc3ccccc3)c(OC)c2)ccc1OCc1ccccc1` [APC1-101], the 50% inhibitory concentration (IC50) was no more than 30 µM.

With `[O-][n+]1onc2cc(F)c(F)cc21` [Compound J40], the “TbTryS Activity ± 2σn-1 (%)” value is on record as 85.0 ± 1.4; 2%.

Take `COc1cc(CNCCCCCCCCNCc2ccc(OCc3ccccc3)c(OC)c2)ccc1OCc1ccccc1` [APC1-111, N^1,N^8-bis(4-(benzyloxy)-3-methoxybenzyl)octane-1,8-diamine]: the IC50 is no more than 30 µM and the “TbTryS Activity ± 2σn-1 (%)” value is reported as “halved”.

On to `Clc1ccc(CNCCCCCCCCNCc2ccc(Cl)cc2)cc1` [EAP1-43], for which the “TbTryS Activity ± 2σn-1 (%)” value is 69.7 ± 3.0; 4%.

Staying with this test, now noted: read-out: % TbTryS inhibition ± 2σn-1.
Turning to `COc1cc(CNCCCCNCc2ccc(OCc3ccccc3)c(OC)c2)ccc1OCc1ccccc1` [APC1-89], the inhibition at 30 µM was found to be 50.9%.

In the case of `CC(C)(C)NC(=O)Nc1nc2nc(N)ncc2cc1-c1ccc2ccccc2c1` [ZEA10], the inhibition at 30 µM is 50%.

On to `Brc1ccc(CNCCCCCCCCCCCCNCc2ccc(Br)cc2)cc1` [EAP1-63], for which the inhibition at 30 µM is roughly 50%.

Regarding `COc1cc(CNCCCCCCNCc2ccc(OCc3ccccc3)c(OC)c2)ccc1OCc1ccccc1` [APC1-101], the inhibition at 30 µM is 61.2%.

With `COc1cc(CNCCCCCCCCNCc2ccc(OCc3ccccc3)c(OC)c2)ccc1OCc1ccccc1` [APC1-111, N^1,N^8-bis(4-(benzyloxy)-3-methoxybenzyl)octane-1,8-diamine], the inhibition at 30 µM was 55.6%.

The test is the same for the next values; noted with them: read-out: TbTryS Activity ± 2σn-1 (%).
As for `COc1ccc(CNCCCNCc2ccc(OC)cc2)cc1` [APC1-67], the activity at 30 µM turned out to be 71.9%.

As to `COc1cc(CNCCCCCCNCc2ccc(OCc3ccccc3)c(OC)c2)ccc1OCc1ccccc1` [APC1-101], the activity at 30 µM stood at 38.8%.

Turning to `COc1cc(CNCCCCCCCCNCc2ccc(OCc3ccccc3)c(OC)c2)ccc1OCc1ccccc1` [APC1-111, N^1,N^8-bis(4-(benzyloxy)-3-methoxybenzyl)octane-1,8-diamine], the activity at 30 µM came out at 44.4%.

The subject of another test is TryS-RNAi T. b. brucei cell line. Description: Cytotoxicity towards T. b. brucei with downregulated TryS expression. To be noted: identical assays as for EAP1-47. As for the experimental part:
The assay conditions to assess the cytotoxicity of compounds towards parasites and murine macrophages (cell line J774) are described in S1 Text. All assays were performed in duplicates or triplicates.
Total cell extracts from the WT and RNAi-TryS cell lines of T. b. brucei grown in the presence or absence of oxytetracycline were separated under reducing conditions on an SDS / 10% PAGE. The blotted membranes were incubated with mouse polyclonal antibodies against TbTryS (dilution 1:1000) followed by a horseradish peroxidase-conjugated anti-mouse IgG (dilution 1:10000). Reactive bands were detected by chemiluminescence using ECL plus (GE Healthcare) and quantified by densitometric analysis using the free software ImageJ (http://imagej.nih.gov/ij/).
The growth medium for WT and RNAi-TryS parasites was additionally supplemented with 0.2 µg/mL phleomycin and 2.5 µg/mL G418, and 5 µg/mL hygromycin only for the RNAi-TryS cell line. The RNAi of TryS was induced by adding 10 µg/mL oxytetracycline to the culture medium. […] Parasite viability was assessed in samples from cultures induced 48 h or not with oxytetracycline and grown in the presence and absence of compounds for 24 h, by manual cell counting (24-well culture plate) or flow cytometry (96-well culture plate).
With `Brc1ccc(CNCCCCCCCCCCCCNCc2ccc(Br)cc2)cc1` [EAP1-63], the “difference in potency towards WT or TryS-depleted parasites” value was “did not show differences”.
